Assay results published in US20260199282A1, “METHODS AND COMPOSITIONS FOR IMPROVING DRIVING PERFORMANCE” (priority 2022, published 2026).
Where “and” joins values, the source holds several entries; their conditions need not be identical. Equal values may be shown once. Read-outs that look alike come from different tables or passages of the source.

Assays:
[1] = cited from earlier work
[2] = tested on: participants with narcolepsy; experiment: Standardized on-road driving test, narcolepsy study; format: in vivo, human; settings: for SDLP, observed mean (SD) / SDLP, median / SDLP, median difference (range), solriamfetol - placebo: day 7, 300 mg/day; for SDLP, median / SDLP, median difference (range), solriamfetol - placebo: mITT
Experimental: In this randomized, double-blind, placebo-controlled, crossover study, driving performance during a 1-hour on-road driving test was assessed at 2 hours and 6 hours post-dose following 7 days of treatment with solriamfetol (150 mg/day for 3 days, followed by 300 mg/day for 4 days) or placebo. The primary endpoint was standard deviation of lateral position (SDLP) at 2 hours post-dose.
At the end of each treatment period, a standardized on-road driving test (Verster & Roth, 2011) was conducted at 2 hours and at 6 hours after administration of drug or placebo (FIG. 1A). For each test (~1 hour in duration), participants drove a specially instrumented vehicle over a 100 km (~62 miles) primary highway circuit; they were accompanied by a licensed driving instructor with access to dual controls (brakes, clutch, accelerator). Participants were instructed to maintain both a steady lateral position between the delineated boundaries of the slower (right) traffic lane and a constant speed of 95 km/h (~59 mph). Participants were permitted to deviate from these instructions only to pass a slower vehicle, to respond to slower traffic ahead, or to exit and reenter the highway at the turnaround point (these events were removed for the purpose of data analysis by 2 experienced editors of the driving data). Vehicle speed and lateral distance to the left-lane line were continuously recorded, and the data stored on an onboard computer. The driving test could be stopped by the participant or by the accompanying driving instructor if considered it unsafe to continue.
The primary outcome assessment from the driving tests was standard deviation of lateral position (SDLP) in centimeters—a measure of “weaving” or road-tracking control (Ramaekers, 2017; Verster & Roth, 2011). […] Standard deviation of speed and number of lane drifts (defined as deviations>100 cm from the absolute lateral position within an 8-second window) were also determined from driving test data.
Change in SDLP was analyzed with a repeated mixed-effects analysis of variance (ANOVA).
Maximally selected McNemar symmetry analyses (Laska, Meisner, & Wanderling, 2012) were used to detect asymmetry in the distribution of the change in driving performance at 2 hours and 6 hours post-dose. Single McNemar tests were used to analyze the difference in proportions of participants with improved or impaired driving performance at relevant thresholds. Thresholds of 1.0, 1.5, 2.0, 2.5, 3.0, and 3.5 cm were used.
(§1) Additional secondary efficacy measures (standard deviation of speed, number of lane drifts, and THAT scores) were analyzed using a similar ANOVA method as described for SDLP. No multiplicity adjustments were made in the efficacy analyses for multiple endpoints, and all p values are therefore nominal.

[3] = tested on: subjects with EDS due to OSA; design: species or system human; settings: in vivo
[4] = tested on: participants with narcolepsy; experiment: Toronto Hospital Alertness Test (THAT), narcolepsy study; format: in vivo, human; settings: end of 7-day treatment period
Experimental: The Toronto Hospital Alertness Test (THAT) is a 10-item self-report questionnaire that measures perceived alertness over the previous week; scores can range from 0 to 50, with higher scores indicating greater alertness (Shapiro et al., 2006). This assessment was administered at the end of each 7-day treatment period to evaluate participants' perceived alertness throughout the treatment period.
as §1

[5] = tested on: subjects with EDS due to OSA; experiment: Toronto Hospital Alertness Test (THAT), OSA study; format: in vivo, human
Experimental: THAT is analyzed using a mixed effect analysis of covariance (ANCOVA) model. The model includes baseline, treatment (JZP-110 and placebo), treatment period, treatment sequence as fixed effects and subject as a random effect. *p-value is nominal.
The THAT is a 10-item self-report questionnaire designed to measure perceived alertness in the preceding week (Shapiro 2006). The test was administered at baseline and prior to administration of study drug at Visits 4 and 5

[6] = tested on: participants with narcolepsy; experiment: Safety / adverse events, narcolepsy study; format: in vivo, human
Experimental: Safety assessments included a physical examination, ECG, clinical laboratory tests, and assessment of adverse events (AEs).
Demographic, narcolepsy history, and safety data were summarized for the safety population, which included all participants who received ≥1 dose of study drug. No formal statistical testing was performed on these parameters.

[7] = tested on: participants with narcolepsy; settings: 12 weeks; 75 to 300 mg/day; cited from earlier work
[8] = tested on: subjects with EDS due to OSA; experiment: Safety / adverse events, OSA study; format: in vivo, human
Experimental: The incidence of treatment-emergent adverse events was summarized by treatment. Descriptive statistics were presented for vital sign results. No formal statistical testing was performed for the safety analyses.
The use of vital signs, clinical laboratory tests, standard AE reporting, and the questionnaires that were selected to assess the safety of the study drug were appropriate since they are routinely used to assess the safety profile of drugs in clinical studies and pertinent to known risks of solriamfetol. The C-SSRS is able to determine clinically meaningful points at which a person may be at risk for an impending suicide attempt (Posner 2011).

[9] = tested on: participants with narcolepsy; design: species or system human; settings: in vivo
[10] = tested on: participants with narcolepsy; settings: 12 weeks; 75 to 300 mg/day; cited from earlier work; remark: listed apart in the source

Q: What does the source list for `NC(=O)OC[C@H](N)Cc1ccccc1` [Solriamfetol, (R)-2-amino-3-phenylpropyl carbamate]?
A: mean half-life ([1]; fasting conditions): 5.9 h; median time to peak plasma concentration ([1]; fasting conditions): 2 h; mean half-life ([1]; fed conditions): 6.1 h; median time to peak plasma concentration ([1]; fed conditions): 3 h; maximum McNemar test, improved vs impaired driving ([2]; 2 hours and 6 hours post-dose, thresholds 1.0 to 3.5 cm): did not show asymmetry; number of lane drifts, LS mean (SE) ([2]; 2 hours post-dose): 2.3 (0.8); number of lane drifts, LS mean difference vs placebo ([2]; 2 hours post-dose): −0.98; standard deviation of speed, LS mean (SE) ([2]; 2 hours post-dose): 2.8 (0.2) km/h; standard deviation of speed, LS mean difference vs placebo ([2]; 2 hours post-dose): −0.22 km/h; SDLP, observed mean (SD) ([2]; 2 hours post-dose): 19.0 (3.6) cm and 18.97 cm; SDLP, median ([2]; 2 hours post-dose): 19.08 cm; SDLP, median difference (range), solriamfetol - placebo ([2]; 2 hours post-dose): −1.9 (−6.7 to 2.6) cm; SDLP, median difference (range), solriamfetol - placebo ([2]; 2 hours post-dose, listed as solriamfetol): −1.9 cm and −1.90 cm; participants with incomplete driving tests ([2]; 2 hours post-dose, on solriamfetol): Four; number of lane drifts, LS mean (SE) ([2]; 6 hours post-dose): 3.6 (0.8); number of lane drifts, LS mean difference vs placebo ([2]; 6 hours post-dose): −0.08; standard deviation of speed, LS mean (SE) ([2]; 6 hours post-dose): 3.1 (0.2) km/h; standard deviation of speed, LS mean difference vs placebo ([2]; 6 hours post-dose): −0.11 km/h; SDLP, observed mean (SD) ([2]; 6 hours post-dose): 19.8 (3.5) cm; SDLP, median ([2]; 6 hours post-dose): 19.59 cm; SDLP, median difference (range), solriamfetol - placebo ([2]; 6 hours post-dose): −1.1 (−12.1 to 6.0) cm; SDLP, median difference (range), solriamfetol - placebo ([2]; 6 hours post-dose, listed as solriamfetol): −1.1 cm; participants with incomplete driving tests ([2]; 6 hours post-dose, on solriamfetol): Three; driving tests stopped ([2]; on solriamfetol, 7/44 tests): 16%; participants with ≥1 incomplete test ([2]; while on solriamfetol, either time point): 5; PVT errors, LS mean (SE) [3]: 1.24 (0.58) n/trial and 1.84 (0.58) n/trial; PVT inverse reaction time, LS mean (SE) [3]: 3.53 (0.04) 1/ms and 3.64 (0.04) 1/ms and 3.71 (0.04) 1/ms; PVT lapses, LS mean (SE) [3]: 3.82 (0.90) n/trial and 3.02 (0.90) n/trial and 3.98 (0.90) n/trial; THAT score, LS mean (SE) [4]: 34.0 (1.4); THAT score, LS mean difference solriamfetol vs placebo [4]: 7.1; THAT total score, LS mean difference, sensitivity analysis ([5]; PP population): 2.983; THAT total score, LS mean (SE) ([5]; end of treatment period, mITT): 27.52; THAT total score, mean (SD) ([5]; end of treatment period, mITT): 27.5 (7.60); THAT total score, median ([5]; end of treatment period, mITT): 28.5; THAT total score, LS mean (SE) ([5]; end of treatment period, mITT, listed as JZP-110): 27.52 (1.162); THAT median total score, difference vs placebo ([5]; mITT): 4.0; THAT total score, LS mean difference (JZP-110 − Placebo) ([5]; mITT): 3.579; serious or fatal TEAEs ([6]; in vivo): no serious or fatal TEAEs; participants experiencing a TEAE, n (%) ([6]; while on solriamfetol): 17 (74%); discontinuation due to AEs ([6]; while taking solriamfetol): No participant discontinued; Maintenance of Wakefulness Test, treatment difference from placebo (least squares mean) [7]: 2.6 to 10.1 min; subjects with TEAE considered related to study treatment ([8]; after receiving solriamfetol): 35.3%; serious or fatal TEAEs ([8]; in vivo): no serious nor fatal TEAEs; subjects with TEAE related or suspected related to study drug, n (%) ([8]; received solriamfetol): 12 (35.3%); subjects experiencing TEAEs, n (%) ([8]; receiving solriamfetol): 17 (50.0%); PVT errors, LS mean (SE) [9]: 1.11 (0.42) n/trial and 1.39 (0.42) n/trial and 1.34 (0.32) n/trial; PVT inverse reaction time, LS mean (SE) [9]: 3.41 (0.07) 1/ms and 3.80 (0.07) 1/ms and 3.72 (0.07) 1/ms; PVT lapses, LS mean (SE) [9]: 6.63 (1.61) n/trial and 3.35 (1.61) n/trial and 4.52 (1.61) n/trial; PVT mean reaction time, LS mean (SE) [9]: 582 (148.4) ms and 317 (148.4) ms and 319 (148.4) ms; Epworth Sleepiness Scale, treatment difference from placebo (least squares mean) [10]: −2.2 to −4.7 points
